For three compounds, Activity and Ratio results are on record in ChEMBL document CHEMBL3046379, “Differential activity against aphid settling of flavones obtained from Clytostoma callistegioides (Bignoniaceae)” (2013).

Assay type in all cases: functional
Experiment [1] deals with Myzus persicae. As to the kind of experiment: Anti-settling activity against Myzus persicae (green peach aphid) in compound treated bell pepper leaf assessed as aphids settled on leaf at 50 ug/cm'2 measured 24 hr (reference value: 52 +/- 7 to 75 +/- 4%).
Experiment [2] deals with Rhopalosiphum padi. The experiment in a line: Anti-settling activity against Rhopalosiphum padi in compound treated barley [Hordeum vulgare L. (Poaceae)] foliage leaf assessed as preference index at 50 ug/cm'2 measured 24 hr.
In experiment [3] the test system is Myzus persicae. As to the kind of experiment: Anti-settling activity against Myzus persicae (green peach aphid) in compound treated bell pepper leaf assessed as preference index at 50 ug/cm'2 measured 24 hr.
The test system of experiment [4] is Rhopalosiphum padi. The experiment in a line: Anti-settling activity against Rhopalosiphum padi in compound treated barley [Hordeum vulgare L. (Poaceae)] foliage leaf assessed as aphids settled on leaf at 50 ug/cm'2 measured 24 hr (reference value: 55 +/- 4 to 90 +/- 3%).

As for `COc1ccc(-c2cc(=O)c3c(O)cc(O)c(OC)c3o2)cc1` [GALANGUSTIN], the Activity in experiment [1] was 29%; in experiment [4], 10%. The Ratio is on record as 0.8 in experiment [2] and 0.4 in experiment [3].
In the same order, the values of `COc1ccc(-c2cc(=O)c3c(O)cc(O)cc3o2)cc1` [ACACETIN] are 44%, 34%, 0.3 and 0.1.
For the compound `COc1c(O)cc(O)c2c(=O)cc(-c3ccc(O)cc3)oc12` [4'-HYDROXYWOGONIN], the figures for the Activity in experiment [1] and in experiment [4] were 48% and 44%, respectively. In addition, the Ratio in experiment [2] is listed as 0.1; in experiment [3] it was 0.
